Measurements: PubChem BioAssay (NCI)
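A five-concentration, 48-hour dose response in 96-well plates underlies each endpoint, interpolated linearly between surrounding concentrations. GI50 marks 50% less growth. Definition used: TGI = concentration required for complete inhibition of growth.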

Tests used:
Experiment in all cases: NCI anticancer screen, dose series, 48 h
[1] = system: MDA-MB-435
[2] = system: HL-60(TB) leukemia
[3] = system: SR leukemia
[4] = system: PC-3 prostate
[5] = system: TK-10 renal
[6] = system: SK-OV-3 ovarian
[7] = system: LOX IMVI melanoma
[8] = system: A549 NSCLC
[9] = system: HS 578T breast
[10] = system: OVCAR-8 ovarian
[11] = system: HOP-92 NSCLC
[12] = system: HCT-116 colon
[13] = system: MCF7 breast
[14] = system: SNB-19 CNS
[15] = system: NCI-H23 lung
[16] = system: NCI-H226 lung
[17] = system: MALME-3M melanoma
[18] = system: SF-295 CNS
[19] = system: CCRF-CEM leukemia
[20] = system: OVCAR-4 ovarian
[21] = system: M14 melanoma
[22] = system: UACC-62 melanoma
[23] = system: SF-268 CNS
[24] = system: T-47D breast
[25] = system: COLO 205 colon
[26] = system: RPMI-8226 leukemia
[27] = system: ACHN renal
[28] = system: U251 CNS
[29] = system: UO-31 renal
[30] = system: K-562 leukemia
[31] = system: SW-620 colon
[32] = system: 786-0 renal
[33] = system: SK-MEL-28 melanoma
[34] = system: MOLT-4 leukemia
[35] = system: HT29 colon
[36] = system: NCI/ADR-RES ovarian
[37] = system: RXF 393 renal
[38] = system: NCI-H460 lung
[39] = system: UACC-257 melanoma
[40] = system: EKVX NSCLC
[41] = system: HCC-2998 colon
[42] = system: NCI-H522 lung
[43] = system: SF-539 CNS
[44] = system: BT-549 breast
[45] = system: A498 renal
[46] = system: OVCAR-3 ovarian
[47] = system: CAKI-1 renal
[48] = system: SNB-75 CNS
[49] = system: SK-MEL-5 melanoma
[50] = system: DU-145 prostate
[51] = system: SN12C renal
[52] = system: OVCAR-5 ovarian
[53] = system: HOP-62 NSCLC
[54] = system: HCT-15 colon
[55] = system: IGROV1 ovarian
[56] = system: MDA-MB-231 breast
[57] = system: KM12 colon

Molecule `CN(c1ccc(Cl)c(Cl)c1)c1cnc2cc(N)cc(N)c2n1` has a GI50 [1] of 1.91 µM, a TGI [1] of 3.99 µM and a GI50 [2] of 2.26 µM. It also gave a TGI [2] of 7.56 µM, a GI50 [3] of 3.77 µM and a TGI [3] of over 100 µM. The GI50 [4] was 4.15 µM, the TGI [4] was 18.1 µM and the GI50 [5] was 13.2 µM. The TGI [5] was 27.7 µM, the GI50 [6] was 13.6 µM and the TGI [6] was 37.8 µM. The GI50 [7] was 1.84 µM, the TGI [7] was 3.74 µM and the GI50 [8] was 13.7 µM. The TGI [8] was 45.4 µM, the GI50 [9] was 2.66 µM and the TGI [9] was 7.36 µM. For the same molecule, the GI50 [10] was 3.48 µM, the TGI [10] was 15.4 µM and the GI50 [11] was 13.1 µM. It also gave a TGI [11] of 33.4 µM, a GI50 [12] of 2.31 µM and a TGI [12] of 4.9 µM. For the same molecule, the GI50 [13] was 2.03 µM, the TGI [13] was 4.93 µM and the GI50 [14] was 3.75 µM. The TGI [14] was 15.1 µM, the GI50 [15] was 2.11 µM and the TGI [15] was 4.47 µM. For the same molecule, the GI50 [16] was 15.1 µM, the TGI [16] was 33.9 µM and the GI50 [17] was 2.19 µM. It also gave a TGI [17] of 4.28 µM, a GI50 [18] of 3.58 µM and a TGI [18] of 12.4 µM. It also gave a GI50 [19] of 2.64 µM, a TGI [19] of 8.7 µM and a GI50 [20] of 1.71 µM. The TGI [20] was 3.32 µM, the GI50 [21] was 1.91 µM and the TGI [21] was 3.44 µM. The GI50 [22] was 2.25 µM, the TGI [22] was 4.43 µM and the GI50 [23] was 4.62 µM. The TGI [23] was 25 µM, the GI50 [24] was 2.45 µM and the TGI [24] was 8.95 µM. It also gave a GI50 [25] of 1.79 µM, a TGI [25] of 3.47 µM and a GI50 [26] of 3.65 µM. For the same molecule, the TGI [26] was 26 µM, the GI50 [27] was 4.64 µM and the TGI [27] was 16 µM. The GI50 [28] was 2.62 µM, the TGI [28] was 6.86 µM and the GI50 [29] was 3.4 µM. For the same molecule, the TGI [29] was 16.6 µM, the GI50 [30] was 4.21 µM and the TGI [30] was over 100 µM. For the same molecule, the GI50 [31] was 2.04 µM, the TGI [31] was 4.34 µM and the GI50 [32] was 12.7 µM. For the same molecule, the TGI [32] was 26 µM, the GI50 [33] was 2.98 µM and the TGI [33] was 8.06 µM. For the same molecule, the GI50 [34] was 3.81 µM, the TGI [34] was over 100 µM and the GI50 [35] was 4.07 µM. The TGI [35] was 22 µM, the GI50 [36] was 10.6 µM and the TGI [36] was 30.1 µM. For the same molecule, the GI50 [37] was 4.19 µM, the TGI [37] was 40.3 µM and the GI50 [38] was 14.2 µM. It also gave a TGI [38] of 52.1 µM, a GI50 [39] of 1.81 µM and a TGI [39] of 3.59 µM. The GI50 [40] was 3.63 µM, the TGI [40] was 11.2 µM and the GI50 [41] was 11.5 µM. For the same molecule, the TGI [41] was 24.5 µM, the GI50 [42] was 2.58 µM and the TGI [42] was 6.5 µM. It also gave a GI50 [43] of 4.71 µM, a TGI [43] of 17 µM and a GI50 [44] of 2.73 µM. For the same molecule, the TGI [44] was 6.56 µM, the GI50 [45] was 17.6 µM and the TGI [45] was 32.3 µM. For the same molecule, the GI50 [46] was 2.36 µM, the TGI [46] was 10.9 µM and the GI50 [47] was 4.08 µM. The TGI [47] was 17.6 µM, the GI50 [48] was 3.34 µM and the TGI [48] was 9.57 µM. It also gave a GI50 [49] of 1.96 µM, a TGI [49] of 3.71 µM and a GI50 [50] of 2.74 µM. For the same molecule, the TGI [50] was 7.34 µM, the GI50 [51] was 1.75 µM and the TGI [51] was 3.27 µM. It also gave a GI50 [52] of 15.7 µM, a TGI [52] of 30.5 µM and a GI50 [53] of 2.91 µM. For the same molecule, the TGI [53] was 8.07 µM, the GI50 [54] was 4.57 µM and the TGI [54] was 20.1 µM. The GI50 [55] was 5.27 µM, the TGI [55] was 60.2 µM and the GI50 [56] was 3.37 µM. For the same molecule, the TGI [56] was 15.4 µM, the GI50 [57] was 7.2 µM and the TGI [57] was 25.8 µM.
